9 molecules from patent US20250195498A1, “INHIBITOR OF CELLULAR PURINE NUCLEOTIDE SALVAGE PATHWAY ENZYME FOR USE IN THE TREATMENT AND/OR PREVENTION OF HELICOBACTER PYLORI INFECTION AND/OR DISEASE ASSOCIATED WITH SUCH INFECTION AND PHARMACEUTICAL COMPOSITION COMPRISING THE SAME” (UNIWERSYTET WARSZAWSKI, priority 2022, published 2025) can be followed below.

≈ marks a conversion by molar mass, not a printed value. Where “and” joins values, the source holds several entries; their conditions need not be identical. Identical values can stand only once. Like-named read-outs stand apart in the source and are kept apart here.

One experiment relates to H. pylori strain 26695. In words: Growth curve method / MIC in liquid culture, strain 26695. Format: cell-based, Helicobacter pylori. The settings on record: strain 26695; for MIC: read-out: MIC; for % inhibition of H. pylori cell cultures at maximum inhibitor solubility: at maximum solubility in 3.5% DMSO; for growth inhibition: 200 μM, partially precipitated. Here is the method:
The representative PNP inhibitor from H. pylori included in this study was immucillin A. The experiment was conducted using the growth curve method (two-fold serial dilutions in liquid medium). The tested H. pylori strains were cultured in Petri dishes with BHI solid medium supplemented with 10% FBS and 1% H. pylori Selective Supplement antibiotic kit, in anaerostats under microaerophilic conditions (5% 02, 10% CO2, 85% N2) at 37° C. for 3 days. Liquid culture of H. pylori was conducted overnight with shaking at 37° C. under microaerophilic conditions in BHI medium supplemented with 10% FBS and 1% H. pylori Selective Supplement antibiotic kit. Subsequently, for the essential experiment of determining the minimum inhibitory concentration (MIC), double strengthened liquid BHI medium was prepared, that is, supplemented with 20% FBS and a 2% set of H. pylori Selective Supplement antibiotics.
Bacterial proliferation inhibition experiments were carried out in 24-deep-well 2 ml flat-bottomed plates at a solution volume per well of 0.5 ml. In a single well, double strengthened (relative to the concentration planned for testing) solutions of the test inhibitor and double strengthened liquid BHI medium inoculated with H. pylori (10^4-10^5 CFU/ml in the final volume in the well, corresponding to the optical density of the culture OD600=0.05) were mixed together in a 1:1 ratio.
Kanamycin at a concentration of 25 μg/ml (Irie et al., 1997) was used as a positive control, while Mili-Q deionized water and BHI medium not inoculated with bacteria were used as negative controls. Plates were shaken at 37° C., under microaerophilic conditions. […] After 24 hours, the OD600 of samples containing the negative control, i.e. with Mili-Q deionized water, was about 1.2-1.4, corresponding to a bacterial concentration of about […].
In addition, the method proposed by Knezevic et al. (2018) was used to check whether the observed OD600 was from live bacterial cells. For this purpose, an equal volume of Christensen's double strength urea broth (that is, containing twice the concentration of all components) was added to the wells after incubation, and the plates were additionally incubated for 4 hours in an oxygen atmosphere at 37° C. During incubation, in wells with urease produced by live bacteria, urea is converted to ammonia and carbon dioxide, changing the pH of the solution and thus the colour of the phenol red indicator contained in the medium (from orange to purple).
All experiments were performed in triplicate.
The experiments were carried out using the growth curve method as described in Example 3, and the results obtained for two of the compounds tested are shown in FIG. 5. As the water solubility of the compounds tested, with the exception of 2,6-diCl-Pu, is relatively poor, two experiments were carried out: the first with the maximum concentration possible under the experimental conditions in aqueous solution with a small admixture of DMSO, and the second with higher concentrations that led to partial precipitation of the compound.
The antibacterial activity of two compounds, mefloquine (in the form of hydrochloride) and quinine, described in the literature as potent in vitro inhibitors of the PNP enzyme from Plasmodium falciparum (Dziekan et al., 2019), was tested. Using a two-fold serial dilution method in liquid medium (as described in Example 3), the MIC values for mefloquine and quinine were determined against clinical H. pylori strains resistant to MTZ, CLR and MTZ+CLR (M26, M91, M92 and M93), as well as the reference H. pylori strain 26695. Four clinical H. pylori strains isolated from adults, from primary infections (the subjects had never previously been treated against H. pylori infection) were tested. These strains come from the collection of the Department of Microbiology of the Medical University of Wroclaw and were obtained due to collaboration with Prof. Grażyna Gościniak, MD, PhD. […]

Experiment [1] concerns the target T1, PNP from H. pylori strain 26695 (Helicobacter pylori, UniProt P56463).
T1 construct: made in house; host or cells: E. coli
In words: Inhibition of PNP from H. pylori, spectrophotometric phosphorolysis assay. Format: biochemical. From the text:
The specific activity of PNP is usually determined using inosine as a substrate, in an assay in which the phosphorolysis product, hypoxanthine, is oxidized to uric acid in a reaction catalysed by xanthine oxidase. However, in the inhibition assay of PNP from H. pylori strain 26695, 7-methylguanosine (m^7Guo) and guanosine (Guo) were used as nucleoside substrates to avoid potential inhibition of xanthine oxidase by the test compounds. Phosphorolysis of these two substrates can be observed using a direct spectrophotometric method in a known manner.
Enzymatic activity was studied in a quartz cuvette with an optical path length of 1 cm or 0.5 cm. The absorbance of the reaction mixture, at the observation wavelength, never exceeded 1.2. The reaction volume was 1 ml or 1.4 ml in cuvettes with optical path lengths of 1 cm and 0.5 cm, respectively. The reaction mixture contained 50 mM Hepes/NaOH buffer, pH 7.0, 50 mM phosphate buffer, pH 7.0 (unless otherwise indicated), nucleoside substrate and inhibitor (with the latter not added to the reference/control reactions). Reactions were usually initiated by adding the enzyme to a cuvette containing the other reaction components. However, in cases where possible slow formation of an inhibitor-enzyme complex was checked, a second variant was also used involving incubation of the enzyme in a reaction mixture containing the inhibitor but lacking the substrate, 7-methylguanosine, and initiation of the reaction by adding this substrate.
In order to determine the inhibition constants and determine the molecular mechanism of inhibition, equations describing different mechanisms of inhibition were fitted to the obtained experimental data. GraphPad Prism 8 program was used. The model best describing the obtained data was selected based on the sum of squares of deviations using the F test for models with different number of parameters and the Akaike criterion (AIC) for models with the same number of parameters.
The following equations were used to describe competitive inhibition, characterized by the inhibition constant Kic, [1], uncompetitive, characterized by the inhibition constant Kiu, [2], non-competitive, characterized by the inhibition constant Kin, [3], and mixed, characterized by the inhibition constants Kiu and Kic, [4] (Segel, 1993):
The last equation can also be represented in the following form, as used by GraphPad Prism software, where Kiu=alpha Kic:
Immucillin A was chosen as the most promising one for potential pharmacological use in combating H. pylori infection because immucillin A has an amino substituent at position 6 of the 9-dazapurine ring, while PNP found in the human body requires a substituent at this position having electron-pairs-hydrogen bond acceptors, such as a substituent in the form of a keto group, to strongly bind the ligand. According to the invention, it is therefore believed that immucillin A will not interact with the host PNP, and thus allow selective inhibition of the PNP from H. pylori. Using the methods described above, the effect of immucillin A on the rate of the 7-methylguanosine (m^7Guo) phosphorolysis reaction catalysed by PNP from H. pylori was examined (FIG. 1). Since it is known (Schramm, 2018) that immucillins form a strongly bound complex with the enzyme relatively slowly, reactions were initiated by adding the substrate, m^7Guo, to a cuvette in which the enzyme was incubated with the inhibitor, as described in Example 1.
Data analysis was also performed as described in this Example. The range of substrate concentrations tested was 10-200 μM or 10-280 μM (shown in FIG. 4), and the range of inhibitor concentrations was chosen according to the observed degree of inhibition of the reaction, in order to obtain a significant degree of inhibition that allows determination of the inhibition mechanism and determination of inhibition constants (see FIG. 4). […]

[2] abbreviates: 7-methylguanosine substrate, 25° C., pH 7.0, 50 mM phosphate, mixed type model, read-out: Kic.
[3] abbreviates: 7-methylguanosine substrate, 25° C., pH 7.0, 50 mM phosphate, mixed type model, read-out: Kiu.
The mark [4] stands for this setting: 7-methylguanosine substrate, 25° C., pH 7.0, 50 mM phosphate, non-competitive model, read-out: Kin.
Where [5] appears, read: 7-methylguanosine substrate, mixed type model.
The mark [6] stands for this setting: 7-methylguanosine substrate, 25° C., pH 7.0, 50 mM phosphate, uncompetitive model, read-out: Kiu.
Setting [7] is: Helicobacter pylori, inhibitor partially precipitated, actual dissolved concentration lower.

T1 sequence (P56463 whole entry): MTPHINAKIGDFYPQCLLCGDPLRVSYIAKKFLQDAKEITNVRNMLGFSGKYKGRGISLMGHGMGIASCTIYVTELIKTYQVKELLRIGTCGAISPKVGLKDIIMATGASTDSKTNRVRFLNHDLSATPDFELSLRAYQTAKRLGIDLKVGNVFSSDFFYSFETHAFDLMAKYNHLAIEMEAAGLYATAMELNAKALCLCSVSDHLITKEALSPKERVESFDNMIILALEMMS

`Clc1nc(Cl)c2[nH]cnc2n1` [2,6-diCl-Pu, 2,6-dichloropurine]: in the experiment with H. pylori strain 26695 (Helicobacter pylori), the MIC (in general, the lowest concentration found to suppress growth) was 473 µg/mL and 2500 µM. Besides, in the experiment with H. pylori strain 26695, the “% inhibition of H. pylori cell cultures at maximum inhibitor solubility” value (from here on “% inhibition of H. pylori cell cultures”) is 93%.

Regarding `Clc1nc(Cl)c2[nH]cnc2n1` [2,6-dichloropurine], the Ki in experiment [1] (setting [2]) is 20 ± 4.9 µM; in experiment [1] (setting [3]) it was 23.5 ± 3.5 µM; in experiment [1] (setting [4]), 22.2 ± 1.4 µM. Besides, in experiment [1] (setting [5]), the “alpha = Kiu/Kic” value is 1.17 ± 0.44.

Turning to `c1ccc(CSc2ncnc3nc[nH]c23)cc1` [6-benzylthiopurine], the Ki in experiment [1] (setting [2]) worked out at 7.5 ± 1.3 µM; in experiment [1] (setting [3]), 8.1 ± 0.7 µM; in experiment [1] (setting [4]), 7.9 ± 0.4 µM. Also, in experiment [1] (setting [5]), the “alpha = Kiu/Kic” value is given as 1.07 ± 0.27.

For `Clc1nc(OCc2ccccc2)c2[nH]cnc2n1` [6BnO-2Cl-Pu, 6-benzyloxy-2-chloropurine], the Ki in experiment [1] (setting [2]) is 18.3 ± 7.3 µM; in experiment [1] (setting [3]), 4.6 ± 0.5 µM; in experiment [1] (setting [4]), 6.5 ± 0.4 µM; in experiment [1] (setting [6]) it was 3.8 ± 0.3 µM. The “alpha = Kiu/Kic” value in experiment [1] (setting [5]) was 0.25 ± 0.12. For the same molecule, the inhibition (as a rule, the change of the read-out against control, counted positive when it falls) at 350 µM in the experiment on H. pylori strain 26695 (Helicobacter pylori, 350 μM (91 μg/ml), inhibitor partially precipitated, read-out: % inhibition of H. pylori cell cultures) was found to be 75%. In the experiment with H. pylori strain 26695, the “% inhibition of H. pylori cell cultures” value is listed as 35%.

For the molecule `Clc1nc(SCc2ccccc2)c2[nH]cnc2n1` [6BnS-2Cl-Pu, 6-benzylthio-2-chloropurine], the Ki in experiment [1] (setting [2]) is 13.2 ± 10.7 µM; in experiment [1] (setting [3]), 2.1 ± 0.3 µM; in experiment [1] (setting [6]), 1.8 ± 0.2 µM. Further, the “alpha = Kiu/Kic” value in experiment [1] (setting [5]) turned out to be 0.16 ± 0.15. Besides, in the experiment with H. pylori strain 26695 (setting [7]), the MIC was 69 µg/mL and 250 µM. Also, the “% inhibition of H. pylori cell cultures” value with H. pylori strain 26695 worked out at 92%.

On to `OC[C@H]1O[C@@H](n2cnc3c(SCc4ccccc4)nc(Cl)nc32)C[C@@H]1O` [6BnS-2Cl-Pu-9dr, 2-chloro-6-benzylthiopurine-2′-deoxy-9-ribofuranoside], for which the Ki in experiment [1] (setting [2]) came to 6.2 ± 2.4 µM; in experiment [1] (setting [3]), 2.9 ± 0.5 µM; in experiment [1] (guanosine as a substrate, mixed type model, read-out: Kic) it was 12.6 ± 5.7 µM; in experiment [1] (guanosine as a substrate, mixed type model, read-out: Kiu), 2 ± 0.2 µM. In addition, the “alpha = Kiu/Kic” value in experiment [1] (setting [5]) turned out to be 0.47 ± 0.24; in experiment [1] (guanosine as a substrate, mixed type model), 0.16 ± 0.08. In addition, the “growth inhibition” value in the experiment with H. pylori strain 26695 was “complete growth inhibition”. Besides, the “% inhibition of H. pylori cell cultures” value with H. pylori strain 26695 was determined as 5%.

With `c1ccc(CSc2ncnc3nc[nH]c23)cc1` [6BnS-Pu, 6-benzylthiopurine], the MIC in the experiment with H. pylori strain 26695 (setting [7]) was 48 µg/mL and 200 µM. For the same molecule, in the experiment with H. pylori strain 26695, the “growth inhibition” value is reported as “Complete inhibition” and the “% inhibition of H. pylori cell cultures” value is listed as 83%.

Take `NC[C@H]1O[C@H](O[C@H]2[C@H](O)[C@@H](O[C@H]3O[C@H](CO)[C@@H](O)[C@H](N)[C@H]3O)[C@H](N)C[C@@H]2N)[C@H](O)[C@@H](O)[C@@H]1O` [Kanamycin, kanamycin]: the inhibition at 52 µM with H. pylori strain 26695 (Helicobacter pylori, kanamycin 25 μg/ml (52 μM), positive control, read-out: % inhibition of H. pylori cell cultures) was 92 to 96%.

`Nc1ncnc2c([C@@H]3N[C@H](CO)C(O)[C@@H]3O)c[nH]c12` (stereo partly shown) [immucillin A]: in experiment [1], the Ki came out at 0.0013 ± 0.0002 µM. Besides, in the experiment on H. pylori strain 26695 (Helicobacter pylori), the MIC turned out to be 80 µM (≈ 21.2 µg/mL).
